The source of these data is a polymer gas permeability compilation.

The structures appear in SMILES notation.

`*Oc1ccc(Cc2ccc(Oc3ccc(S(=O)(=O)c4ccc(*)cc4)cc3)cc2)cc1` (repeat unit) returned a CH4 permeability of 0.19 Barrer, a CO2 permeability of 4.5 Barrer, an H2 permeability of 10.4 Barrer and an N2 permeability of 0.2 Barrer. This molecule also had an O2 permeability of 1.1 Barrer.
The corresponding values for `*c1cc(C(c2ccc(C)c(-n3c(=O)c4cc5oc6cc7c(cc6oc5cc4c3=O)C3(CC(C)(C)c4cc5oc6cc8c(=O)n(*)c(=O)c8cc6oc5cc43)CC7(C)C)c2)(C(F)(F)F)C(F)(F)F)ccc1C` (repeat unit) are 9 Barrer, 210 Barrer, 220 Barrer, 9 Barrer and 39 Barrer.
For `*C(=C(*)c1ccc2c(c1)C(C)(C)c1ccccc1-2)c1ccc(F)c(F)c1` (repeat unit), in that order: 12000 Barrer, 26000 Barrer, 11000 Barrer, 5100 Barrer and 6600 Barrer.
As to `*c1ccc(Oc2ccc3ccccc3c2-c2c(Oc3ccc(N4C(=O)c5ccc(C(c6ccc7c(c6)C(=O)N(*)C7=O)(C(F)(F)F)C(F)(F)F)cc5C4=O)cc3)ccc3ccccc23)cc1` (repeat unit), the CH4 permeability was 0.22 Barrer, the CO2 permeability amounted to 15 Barrer, the H2 permeability amounted to 21.1 Barrer and the N2 permeability turned out to be 0.4 Barrer. The molecule also came in with an O2 permeability of 2.56 Barrer.
In the case of `*Oc1ccc(S(=O)(=O)c2ccc(Oc3ccc(C(C)(C)c4cccc(*)c4)cc3)cc2)cc1` (repeat unit), the CH4 permeability is 0.0432 Barrer, the CO2 permeability was 1.5 Barrer, the N2 permeability is 0.0661 Barrer and the O2 permeability amounted to 0.39 Barrer.
`*Cc1ccc(C*)cc1` (repeat unit) returned a CO2 permeability of 1.3 Barrer, an H2 permeability of 3.2 Barrer, an N2 permeability of 0.047 Barrer and an O2 permeability of 0.235 Barrer.
As for `*c1c(C)c2c(c(N3C(=O)c4ccc(-c5ccc6c(c5)C(=O)N(*)C6=O)cc4C3=O)c1C)C(C)(C)CC2` (repeat unit), the CH4 permeability was 23.9 Barrer, the CO2 permeability was determined as 329 Barrer, the N2 permeability came to 22 Barrer and the O2 permeability was 83.4 Barrer.
As for `*Oc1ccc(C2(c3ccc(Oc4ccc(S(=O)(=O)c5ccc(*)cc5)cc4)cc3)C3CC4CC(C3)CC2C4)cc1` (repeat unit), the CH4 permeability was found to be 0.327 Barrer, the CO2 permeability came out at 7.2 Barrer, the H2 permeability is 17.3 Barrer and the N2 permeability came out at 0.332 Barrer. The molecule also came in with an O2 permeability of 1.86 Barrer.
Take `*CCOC(=O)c1ccc2cc(C(=O)O*)ccc2c1` (repeat unit): the CO2 permeability was found to be 0.131 Barrer and the O2 permeability was determined as 0.0132 Barrer.
`*CC(*)[Si](C)(C)C` (repeat unit) displayed a CH4 permeability of 18 Barrer, a CO2 permeability of 190 Barrer, an H2 permeability of 200 Barrer and an N2 permeability of 11 Barrer. Further, the O2 permeability worked out at 44 Barrer.
The corresponding values for `*c1ccc2c(c1)C1(CC2(C)C)CC(C)(C)c2ccc(N3C(=O)c4cc5c(cc4C3=O)C3(CC(C)(C)c4cc6c(cc43)C(=O)N(*)C6=O)CC5(C)C)cc21` (repeat unit) are 129 Barrer, 1520 Barrer, 624 Barrer, 65 Barrer and 208 Barrer.
In the case of `*C(=C(*)c1ccc2c(c1)C(C)(C)c1ccccc1-2)c1ccccc1` (repeat unit), the CH4 permeability turned out to be 9100 Barrer, the CO2 permeability stood at 17000 Barrer, the H2 permeability worked out at 8100 Barrer and the N2 permeability stood at 3300 Barrer. Also, the O2 permeability was determined as 4800 Barrer.
For `*Oc1ccc(C(C)(C)c2ccc(Oc3c(F)c(F)c(COC(C4CCCC(C(OCc5c(F)c(F)c(*)c(F)c5F)(C(F)(F)F)C(F)(F)F)C4)(C(F)(F)F)C(F)(F)F)c(F)c3F)cc2)cc1` (repeat unit), in that order: 0.32 Barrer, 6.4 Barrer, 17 Barrer, 0.48 Barrer and 2.1 Barrer.
`*Oc1ccc(C(c2ccc(OC(=O)c3ccc(C(*)=O)cc3)cc2)(C(F)(F)F)C(F)(F)F)cc1` (repeat unit) had a CH4 permeability of 2.74 Barrer, a CO2 permeability of 47.1 Barrer, an N2 permeability of 2.95 Barrer and an O2 permeability of 11.8 Barrer.
`*[Si](C)(C)c1cccc([Si](*)(C)C)c1` (repeat unit) registered an N2 permeability of 31.9 Barrer and an O2 permeability of 75.6 Barrer.
The molecule `*C(=C(*)c1ccc2c(c1)C(C)(C)CC2(C)C)c1ccc(F)c(F)c1` (repeat unit) gave a CH4 permeability of 35000 Barrer, a CO2 permeability of 44200 Barrer, an H2 permeability of 36800 Barrer and an N2 permeability of 16600 Barrer. The O2 permeability was found to be 18700 Barrer.
In turn, `*Cc1ccc(C*)c(Cl)c1` (repeat unit) registered a CO2 permeability of 0.0867 Barrer, an H2 permeability of 0.931 Barrer, an N2 permeability of 0.006 Barrer and an O2 permeability of 0.0456 Barrer.
Turning to `*/C=C/C1CC(*)CC1[Si](C)(C)C[Si](C)(C)C` (repeat unit), the CH4 permeability was 8.5 Barrer, the CO2 permeability came to 67 Barrer, the H2 permeability amounted to 73 Barrer and the N2 permeability worked out at 3.7 Barrer. Also, the O2 permeability is 16 Barrer.
The corresponding values for `*Oc1c(C)cc(-c2cc(C)c(Oc3ccc(S(=O)(=O)c4ccc(*)cc4)cc3)c(C)c2)cc1C` (repeat unit) are 0.925 Barrer, 18.6 Barrer, 11.1 Barrer, 0.91 Barrer and 4.55 Barrer.
`*C(=C(*)c1ccc2c(c1)Cc1ccccc1-2)c1ccccc1` (repeat unit) yielded a CH4 permeability of 2400 Barrer, a CO2 permeability of 8500 Barrer, an H2 permeability of 3650 Barrer and an N2 permeability of 1300 Barrer. The molecule also displayed an O2 permeability of 2150 Barrer.
On to `*c1ccc2c3c(ccc2c1)OC1Oc2ccc4cc(N5C(=O)c6ccc(C(c7ccc8c(c7)C(=O)N(*)C8=O)(C(F)(F)F)C(F)(F)F)cc6C5=O)ccc4c2C31` (repeat unit), for which the CH4 permeability came out at 0.7 Barrer, the CO2 permeability was 29.9 Barrer, the H2 permeability was 73 Barrer and the N2 permeability was found to be 1.2 Barrer. The same molecule registered an O2 permeability of 7.2 Barrer.
Take `*c1ccc(C2(c3ccc(*)cc3)c3ccccc3-c3ccccc32)cc1` (repeat unit): the CH4 permeability came to 0.84 Barrer, the CO2 permeability came out at 35.6 Barrer, the N2 permeability came to 1.36 Barrer and the O2 permeability came to 6.8 Barrer.
Molecule `*CC(C#N)(C#N)CC(*)OC(C)=O` (repeat unit) gave an N2 permeability of 0.0138 Barrer and an O2 permeability of 0.16 Barrer.
`*Oc1ccc2nc(-c3ccccc3)c(-c3ccc(-c4nc5cc(*)ccc5nc4-c4ccccc4)cc3)nc2c1` (repeat unit) had an H2 permeability of 17.2 Barrer.
On to `*c1ccc(Oc2ccc(C(=O)c3ccc(Oc4ccc(C(*)(c5ccccc5)C(F)(F)F)cc4)cc3)cc2)cc1` (repeat unit), for which the CO2 permeability amounted to 4.2 Barrer, the H2 permeability was determined as 11 Barrer, the N2 permeability was found to be 0.15 Barrer and the O2 permeability turned out to be 0.91 Barrer.
In the case of `*c1ccc2c(c1)Cc1cc(N3C(=O)c4ccc(C(c5ccc6c(c5)C(=O)N(*)C6=O)(C(F)(F)F)C(F)(F)F)cc4C3=O)ccc1-2` (repeat unit), the CH4 permeability turned out to be 0.63 Barrer, the CO2 permeability turned out to be 32.2 Barrer, the N2 permeability is 1.27 Barrer and the O2 permeability was found to be 7.85 Barrer.
The corresponding values for `*c1ccc(-c2ccc(Oc3ccc(C4(c5ccc(Oc6ccc(-c7ccc(N8C(=O)c9ccc(Oc%10ccc%11c(c%10)C(=O)N(*)C%11=O)cc9C8=O)cc7)cc6C(F)(F)F)cc5)c5ccccc5C(=O)N4c4ccccc4)cc3)c(C(F)(F)F)c2)cc1` (repeat unit) are 0.84 Barrer, 14.6 Barrer, 0.96 Barrer and 4.22 Barrer.
As for `*c1cc(C)c2c(c1)S(=O)(=O)c1cc(N3C(=O)c4ccc(-c5ccc6c(c5)C(=O)N(*)C6=O)cc4C3=O)cc(C)c1-2` (repeat unit), the CH4 permeability was 0.195 Barrer, the CO2 permeability was found to be 7.73 Barrer, the H2 permeability amounted to 28.2 Barrer and the N2 permeability came to 0.499 Barrer. The same molecule came in with an O2 permeability of 3.29 Barrer.
For `*CC(*)C(=O)OC` (repeat unit), in that order: 0.262 Barrer, 8.19 Barrer, 10.6 Barrer, 0.213 Barrer and 1.06 Barrer.
Molecule `*c1ccc(Oc2cccc(N3C(=O)c4ccc(C(c5ccc6c(c5)C(=O)N(*)C6=O)(C(F)(F)F)C(F)(F)F)cc4C3=O)c2)cc1` (repeat unit) returned a CH4 permeability of 0.125 Barrer, a CO2 permeability of 6.11 Barrer, an H2 permeability of 23.7 Barrer and an N2 permeability of 0.259 Barrer. In addition, the O2 permeability turned out to be 1.57 Barrer.
On to `*c1ccc(Oc2ccc(N3C(=O)c4cc(Oc5ccccc5)c(-c5cc6c(cc5Oc5ccccc5)C(=O)N(*)C6=O)cc4C3=O)cc2)cc1` (repeat unit), for which the CH4 permeability came to 0.85 Barrer, the CO2 permeability was determined as 30.1 Barrer, the N2 permeability came to 0.83 Barrer and the O2 permeability amounted to 3.59 Barrer.
In the case of `*c1ccc(Oc2ccc(C(C)(C)c3ccc(Oc4ccc(N5C(=O)c6ccc(C(=O)c7ccc8c(c7)C(=O)N(*)C8=O)cc6C5=O)cc4)cc3)cc2)cc1` (repeat unit), the CO2 permeability amounted to 2.8 Barrer, the H2 permeability is 8.9 Barrer, the N2 permeability was 0.11 Barrer and the O2 permeability is 0.54 Barrer.
In the case of `*C(=C(*)c1cccc([Si](C)(C)C)c1)c1ccccc1` (repeat unit), the CH4 permeability stood at 1500 Barrer, the CO2 permeability was determined as 4700 Barrer, the H2 permeability was found to be 2100 Barrer and the N2 permeability worked out at 610 Barrer. Besides, the O2 permeability is 1200 Barrer.
In turn, `*c1c(C)cc(C)c(N2C(=O)c3ccc(Sc4ccc5c(c4)C(=O)N(*)C5=O)cc3C2=O)c1C` (repeat unit) came in with an H2 permeability of 68.6 Barrer, an N2 permeability of 1.62 Barrer and an O2 permeability of 8.2 Barrer.
